Key:
Assay type in all cases: cell-based, Bacillus licheniformis
ATCC14580 = assay: Test of chloramphenicol resistance, growth in liquid TY+glucose culture; details: 30° C.
Procedure: (§1) Strains PP1897-3, SJ8071 (=PP1897-3 delta cat), ATCC14580, and SJ8344 (=ATCC14580 delta cat) were propagated in 10 ml TY (WO 94/14968, p16) supplemented with 0.5% glucose at 30° C. overnight, with shaking. 50 microliter aliquots were used to inoculate further 10 ml TY+glucose cultures, supplemented with chloramphenicol (cam) to concentrations: 1 microgram/ml, 2 microgram/ml, 3 microgram/ml, 6 microgram/ml, 9 microgram/ml, or 12 microtram/ml, and incubation with shaking continued at 30° C. Growth was scored by visual inspection of turbidity after approximately 7 hours (table 1), and again after overnight incubation (table 2).

PP1897-3 = assay: as above; details: 30° C.
Procedure: as §1

[1] = tested on: SJ8071 (=PP1897-3 delta cat); assay: as above; details: 30° C.
Procedure: as §1

[2] = tested on: SJ8344 (=ATCC14580 delta cat); assay: as above; details: 30° C.
Procedure: as §1

SJ8071 = assay: Growth on reisolation onto LPBSG plates with chloramphenicol; details: SJ8071 deletion strain; LPBSG plates with 10 mikrogram/ml chloramphenicol
Excerpt: (§4) 2 erythromycin sensitive and chloramphenicol sensitive strains were kept as SJ8071 (from donor SJ8039) and SJ8072 (from donor SJ8041).

SJ8072 = assay: as above; details: SJ8072 deletion strain; LPBSG plates with 10 mikrogram/ml chloramphenicol
Excerpt: as §4

control strain = assay: as above; details: LPBSG plates with 10 mikrogram/ml chloramphenicol
Excerpt: as §4

[3] = tested on: cat-deleted recipient strains; assay: Transconjugant selection on chloramphenicol plates; details: cat-deleted recipients (SJ8071, SJ8344); donor SJ8000; chloramphenicol 6 microgram/ml; 30° C. overnight
Procedure: (§2) B. licheniformis strains PP1897-3, the cat-deleted derivative SJ8071, strain ATCC14580, and the cat-deleted derivative SJ8344 were used as recipients in conjugations with donor strain SJ8000, essentially as described before.
(§3) For each donor/recipient combination, donor and recipient colonies were scraped off overnight plates and mixed in a small volume of liquid TY medium, and equal volumes from this mixture was plated on each of two LBPGS plates with D-alanine. Following 6 hours incubation at 30° C., one plate was replicaplated onto LBPGS with erythromycin (2 microgram/ml), and the other plate replica plated onto LPPGS with chloramphenicol (6 microgram/ml). These plates were incubated at 30° C. overnight, then left at room temperature (20-25° C.) for further 3 days.

[4] = tested on: recipient strains containing intact, chromosomal chloramphenicol resistance genes; assay: Transconjugant selection on chloramphenicol plates; details: recipients with intact chromosomal cat (PP1897-3, ATCC14580); donor SJ8000; chloramphenicol 6 microgram/ml; 30° C. overnight
Procedure: as §2, §3

[5] = 1 μg/ml cam, after 7 hours incubation
[6] = 1 μg/ml cam, after overnight incubation
[7] = 2 μg/ml cam, after 7 hours incubation
[8] = 2 μg/ml cam, after overnight incubation
[9] = 3 μg/ml cam, after 7 hours incubation
[10] = 3 μg/ml cam, after overnight incubation
[11] = 6 μg/ml cam, after 7 hours incubation
[12] = 6 μg/ml cam, after overnight incubation
[13] = 9 μg/ml cam, after 7 hours incubation
[14] = 9 μg/ml cam, after overnight incubation
[15] = 12 μg/ml cam, after 7 hours incubation
[16] = 12 μg/ml cam, after overnight incubation

O=C(N[C@H](CO)[C@H](O)c1ccc([N+](=O)[O-])cc1)C(Cl)Cl [cam, chloramphenicol]
Growth scored by visual inspection of turbidity (ATCC14580; [5]): ++ | Growth scored by visual inspection of turbidity (ATCC14580; [6]): ++ | Growth scored by visual inspection of turbidity (ATCC14580; [7]): + | Growth scored by visual inspection of turbidity (ATCC14580; [8]): ++ | Growth scored by visual inspection of turbidity (ATCC14580; [9]): + | Growth scored by visual inspection of turbidity (ATCC14580; [10]): ++ | Growth scored by visual inspection of turbidity (ATCC14580; [11]): − | Growth scored by visual inspection of turbidity (ATCC14580; [12]): ++ | Growth scored by visual inspection of turbidity (ATCC14580; [13]): − | Growth scored by visual inspection of turbidity (ATCC14580; [14]): ++ | Growth scored by visual inspection of turbidity (ATCC14580; [15]): − | Growth scored by visual inspection of turbidity (ATCC14580; [16]): + | Growth scored by visual inspection of turbidity (PP1897-3; [5]): ++ | Growth scored by visual inspection of turbidity (PP1897-3; [6]): ++ | Growth scored by visual inspection of turbidity (PP1897-3; [7]): ++ | Growth scored by visual inspection of turbidity (PP1897-3; [8]): ++ | Growth scored by visual inspection of turbidity (PP1897-3; [9]): + | Growth scored by visual inspection of turbidity (PP1897-3; [10]): ++ | Growth scored by visual inspection of turbidity (PP1897-3; [11]): − | Growth scored by visual inspection of turbidity (PP1897-3; [12]): ++ | Growth scored by visual inspection of turbidity (PP1897-3; [13]): − | Growth scored by visual inspection of turbidity (PP1897-3; [14]): ++ | Growth scored by visual inspection of turbidity (PP1897-3; [15]): − | Growth scored by visual inspection of turbidity (PP1897-3; [16]): + | Growth scored by visual inspection of turbidity [1, 5]: + | Growth scored by visual inspection of turbidity [1, 6]: ++ | Growth scored by visual inspection of turbidity [1, 7]: − | Growth scored by visual inspection of turbidity [1, 8]: ++ | Growth scored by visual inspection of turbidity [1, 9]: − | Growth scored by visual inspection of turbidity [1, 10]: ++ | Growth scored by visual inspection of turbidity [1, 11]: − | Growth scored by visual inspection of turbidity [1, 12]: + | Growth scored by visual inspection of turbidity [1, 13]: − | Growth scored by visual inspection of turbidity [1, 14]: + | Growth scored by visual inspection of turbidity [1, 15]: − | Growth scored by visual inspection of turbidity [1, 16]: + | Growth scored by visual inspection of turbidity [2, 5]: + | Growth scored by visual inspection of turbidity [2, 6]: ++ | Growth scored by visual inspection of turbidity [2, 7]: − | Growth scored by visual inspection of turbidity [2, 8]: ++ | Growth scored by visual inspection of turbidity [2, 9]: − | Growth scored by visual inspection of turbidity [2, 10]: ++ | Growth scored by visual inspection of turbidity [2, 11]: − | Growth scored by visual inspection of turbidity [2, 12]: + | Growth scored by visual inspection of turbidity [2, 13]: − | Growth scored by visual inspection of turbidity [2, 14]: + | Growth scored by visual inspection of turbidity [2, 15]: − | Growth scored by visual inspection of turbidity [2, 16]: + | Growth when reisolated onto plates (SJ8071): absolutely no growth | Growth when reisolated onto plates (SJ8072): absolutely no growth | Growth when reisolated onto plates (control strain): some growth | Transconjugant colonies using chloramphenicol selection [3]: Distinct transconjugant colonies | Transconjugant colonies using chloramphenicol selection [4]: No distinct transconjugant colonies

Reference: US8993304B2, “Chloramphenicol resistance selection in Bacillus licheniformis” (Novozymes A/S, priority 2006, dated 2015)
